Source: patent publication US20240294518A1, “NITROGEN-CONTAINING HETEROCYCLIC COMPOUND” (Evopoint Biosciences Co., Ltd., priority 2021, published 2024)

Biological target: HPK1 kinase (Homo sapiens, UniProt Q92918)
Test: HPK1 kinase inhibition assay, ADP-Glo platform
Type: biochemical
Settings: 0.3 nM HPK1, 5 μM ATP, 0.05 mg/mL MBP
Description: The compounds to be tested were each dissolved in 100% DMSO, with the mother liquor concentration being 10 mM. The liquor was 3-fold diluted at a test starting concentration of 10 μM to yield ten data points, with two replicates set for each point.
The inhibition of the activity of HPK1 kinase by the compound was assayed using an ADP-Glo™ platform. The reaction was performed in a 384-well plate containing 0.3 nM HPK1, 5 μM ATP, 0.05 mg/mL MBP, 0-10 μM compound, and 1% DMSO per well. The reaction buffer was as follows: 50 mM HEPES, 10 mM MgCl2, 1 mM EGTA, 1 mM DTT, 0.01% Brij 35, pH=7.5. The compound and the kinase were incubated at 25° C. for 15 min, and a substrate and ATP were added to initiate the reaction. After 1 h of reaction at 25° C., the ADP-Glo™ reagent was added, and the reaction was terminated, followed by incubation at 25° C. for 1 h. The kinase detection reagent was added, and after 1 h of incubation at 25° C., the chemiluminescence signal was detected. Based on this reading, inhibition percentage was calculated, and IC50 for the compound was calculated using four-parameter fitting.

Chain of HPK1 kinase (Q92918 whole entry): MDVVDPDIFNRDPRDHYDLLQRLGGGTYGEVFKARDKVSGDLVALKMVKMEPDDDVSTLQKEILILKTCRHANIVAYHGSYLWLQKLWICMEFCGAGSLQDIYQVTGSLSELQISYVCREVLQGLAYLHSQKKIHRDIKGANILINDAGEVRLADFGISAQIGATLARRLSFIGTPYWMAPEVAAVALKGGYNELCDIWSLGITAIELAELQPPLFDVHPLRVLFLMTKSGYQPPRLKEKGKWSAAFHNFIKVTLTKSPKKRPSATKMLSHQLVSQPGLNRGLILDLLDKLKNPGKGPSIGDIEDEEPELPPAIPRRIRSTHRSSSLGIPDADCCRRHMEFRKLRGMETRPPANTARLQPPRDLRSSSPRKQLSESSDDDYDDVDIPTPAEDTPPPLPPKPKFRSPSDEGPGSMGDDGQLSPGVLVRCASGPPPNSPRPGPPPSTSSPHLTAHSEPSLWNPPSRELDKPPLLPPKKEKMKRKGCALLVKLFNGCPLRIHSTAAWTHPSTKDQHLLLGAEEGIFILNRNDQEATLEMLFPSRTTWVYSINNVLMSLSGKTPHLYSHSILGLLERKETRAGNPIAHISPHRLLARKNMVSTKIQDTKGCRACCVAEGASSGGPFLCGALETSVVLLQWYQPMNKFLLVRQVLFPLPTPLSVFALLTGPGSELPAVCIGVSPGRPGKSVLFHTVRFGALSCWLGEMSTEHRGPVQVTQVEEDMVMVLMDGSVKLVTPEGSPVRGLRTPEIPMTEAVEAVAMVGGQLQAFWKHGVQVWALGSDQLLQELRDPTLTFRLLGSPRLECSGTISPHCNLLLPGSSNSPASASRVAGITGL

| IC50 | Compound |
| --- | --- |
| 0.01 to 5 nM | COc1cc(-c2cnc3[nH]cc(C)c3c2)cc([C@@H]2COCCN2)c1C1CCOCC1 [Compound A-38] |
| 0.01 to 5 nM | FC(F)(F)c1c[nH]c2ncc(-c3ccc(C4CCOCC4)c([C@@H]4COCCN4)n3)cc12 [Compound A-18] |
| 5 to 10 nM | C[C@H]1CCCN1Cc1nc(-c2cnc3[nH]cc(C4CC4)c3c2)ccc1C1CCOCC1 [Compound A-24] |
| 0.01 to 5 nM | Cc1cc(-c2cnc3[nH]cc(C)c3c2)cc(C2COCCN2)c1C1CCOCC1 (stereo not drawn) [Compound A-5] |
| 5 to 10 nM | Cc1c[nH]c2ncc(-c3cc(Cl)c(C4=CCOCC4)c(C4COCCN4)c3)cc12 (stereo not drawn) [Compound A-13] |
| 10 to 100 nM | CN(C)Cc1nc(-c2cnc3[nH]cc(C(F)(F)F)c3c2)ccc1C1CCOCC1 [Compound A-28] |
| 10 to 100 nM | Cc1c[nH]c2ncc(-c3ccc(C4CCOCC4)c(C4COCCN4)n3)c(F)c12 (stereo not drawn) [Compound A-7] |
| 0.01 to 5 nM | Clc1c[nH]c2ncc(-c3ccc(C4CCOCC4)c([C@@H]4COCCN4)n3)cc12 [Compound A-20] |
| 0.01 to 5 nM | Cc1cc(-c2cnc3[nH]cc(C)c3c2)cc([C@@H]2COCCN2)c1C1CCOCC1 [Compound A-36] |
| 10 to 100 nM | Cc1c[nH]c2ncc(-c3cc(C4COCCN4)c(C4CCOCC4)cc3F)cc12 (stereo not drawn) [Compound A-11] |
| 5 to 10 nM | Cc1c[nH]c2ncc(-c3ccc(C4CCOCC4)c(C4COCCN4)c3)c(F)c12 (stereo not drawn) [Compound A-3] |
| 0.01 to 5 nM | Cc1cc(-c2cnc3[nH]cc(C(F)(F)F)c3c2)nc(C2COCCN2)c1C1CCOCC1 (stereo not drawn) [Compound A-27] |
| 0.01 to 5 nM | c1nc2[nH]cc(C3CC3)c2cc1-c1ccc(C2CCOCC2)c([C@@H]2COCCN2)n1 [Compound A-15] |
| 0.01 to 5 nM | COc1cc(-c2cnc3[nH]cc(C(F)(F)F)c3c2)cc([C@@H]2COCCN2)c1C1CCOCC1 [Compound A-34] |
| 5 to 10 nM | Cc1cc(-c2cnc3[nH]cc(C(F)(F)F)c3c2)cc([C@H]2COCCN2)c1C1CCOCC1 [Compound A-32] |
| 10 to 100 nM | COc1cc(-c2cnc3[nH]cc(C(F)(F)F)c3c2)cc([C@H]2COCCN2)c1C1CCOCC1 [Compound A-35] |
| 10 to 100 nM | c1nc2[nH]cc(C3CC3)c2cc1-c1ccc(C2CCOCC2)c([C@H]2COCCN2)n1 [Compound A-16] |

| IC50 | Compound |
| --- | --- |
| 5 to 10 nM | OCc1c[nH]c2ncc(-c3ccc(C4CCOCC4)c(C4COCCN4)n3)cc12 (stereo not drawn) [Compound A-21] |
| 0.01 to 5 nM | Cc1c[nH]c2ncc(-c3cc(O)c(C4CCOCC4)c(C4COCCN4)c3)cc12 (stereo not drawn) [Compound A-39] |
| 0.01 to 5 nM | FC(F)(F)C1(c2c[nH]c3ncc(-c4ccc(C5CCOCC5)c([C@@H]5COCCN5)n4)cc23)CC1 [Compound A-30] |
| 10 to 100 nM | Cc1c[nH]c2ncc(-c3ccc(C4CCOCC4)c(CN4CCCC4)n3)cc12 [Compound A-26] |
| 0.01 to 5 nM | Cc1cc(-c2cnc3[nH]cc(C)c3c2)cc(C2COCCN2)c1C1=CCOCC1 (stereo not drawn) [Compound A-12] |
| 10 to 100 nM | Cc1c[nH]c2ncc(-c3ccc(C4CCOCC4)c(C4COCCN4)c3F)cc12 (stereo not drawn) [Compound A-10] |
| 5 to 10 nM | COc1cc(-c2cnc3[nH]cc(C)c3c2)cc(C2COCCN2)c1C1CCOCC1 (stereo not drawn) [Compound A-9] |
| 10 to 100 nM | Cc1c[nH]c2ncc(-c3cc(C4COCCN4)c(C4CCOCC4)cc3Cl)cc12 (stereo not drawn) [Compound A-8] |
| 10 to 100 nM | Clc1c[nH]c2ncc(-c3ccc(C4CCOCC4)c([C@H]4COCCN4)n3)cc12 [Compound A-19] |
| 0.01 to 5 nM | c1nc2[nH]cc(C3CC3)c2cc1-c1ccc(C2CCOCC2)c(CN2CCCC2)n1 [Compound A-22] |
| 0.01 to 5 nM | Cc1cc(-c2cnc3[nH]cc(C(F)(F)F)c3c2)cc([C@@H]2COCCN2)c1C1CCOCC1 [Compound A-33] |
| 0.01 to 5 nM | Cc1c[nH]c2ncc(-c3cc(Cl)c(C4CCOCC4)c(C4COCCN4)c3)cc12 (stereo not drawn) [Compound A-6] |
| 0.01 to 5 nM | COC(=O)c1c[nH]c2ncc(-c3ccc(C4CCOCC4)c(C4COCCN4)n3)cc12 (stereo not drawn) [Compound A-29] |
| 0.01 to 5 nM | C[C@@H]1CCCN1Cc1nc(-c2cnc3[nH]cc(C4CC4)c3c2)ccc1C1CCOCC1 [Compound A-25] |
| 5 to 10 nM | FC(F)(F)c1c[nH]c2ncc(-c3ccc(C4CCOCC4)c(CN4CCCC4)n3)cc12 [Compound A-23] |
| 0.01 to 5 nM | CN(C)C(=O)C#Cc1c[nH]c2ncc(-c3ccc(C4CCOCC4)c(C4COCCN4)c3)cc12 (single isomer, unassigned) [Compound A-14] |
